# Measurements published in patent publication US20070191431A1, “2-Amino-5-piperidinylimidazolone compounds and use thereof for beta-secretase modulation” (Wyeth, priority 2005, published 2007).
# Read-outs that look alike come from different tables or passages of the source.
# Columns and labels:
# human BACE1 = human BACE1 (Homo sapiens, UniProt P56817); experiment: BACE-1 fluorescent kinetic assay (Example 88); assay type: biochemical
# Description: Evaluation of BACE-1 Binding Affinity of Test Compounds
# Fluorescent Kinetic Assay
# Dilution and mixing steps: total reaction volume: 100 μL
# 100 μM substrate dilution in 1× PBS was prepared, and
# Fluorescence Readings: Readings at Aex 320 nm and Aem 420 nm are taken every 40 sec for 30 min at room temperature and the linear slope for substrate cleavage rate (vi) determined.
# [1] = 10 nM enzyme, 25 μM substrate WABC-6, Na-Acetate pH 4.5, room temperature, read-out: BACE1 (IC50 μM)
# Sequence of human BACE1 (P56817 46-501): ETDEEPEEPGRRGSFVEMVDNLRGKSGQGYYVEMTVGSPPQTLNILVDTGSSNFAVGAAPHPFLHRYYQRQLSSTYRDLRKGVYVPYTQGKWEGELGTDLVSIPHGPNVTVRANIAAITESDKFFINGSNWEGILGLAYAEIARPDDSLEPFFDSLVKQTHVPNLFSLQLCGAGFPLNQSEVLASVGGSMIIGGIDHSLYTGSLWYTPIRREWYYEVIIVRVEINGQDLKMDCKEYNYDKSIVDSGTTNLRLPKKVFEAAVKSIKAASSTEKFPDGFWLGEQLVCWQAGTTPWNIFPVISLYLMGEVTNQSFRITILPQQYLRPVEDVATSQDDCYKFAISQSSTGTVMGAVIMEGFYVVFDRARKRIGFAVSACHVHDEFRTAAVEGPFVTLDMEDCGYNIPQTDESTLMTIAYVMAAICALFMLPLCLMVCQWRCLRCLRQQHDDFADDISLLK
Structure (SMILES),IC50 (human BACE1; [1]) [µM],melting point,IC50 (human BACE1) [µM]
"CN1C(=O)C(c2cccc(-c3ccccc3)c2)(C2CCN(C(=O)c3ccc(C#N)cc3)CC2)N=C1N (stereo not drawn) [Example 16, 4-({4-[2-amino-4-(1,1′-biphenyl-3-yl)-1-methyl-5-oxo-4,5-dihydro-1H -imidazol-4-yl]piperidin-1-yl}carbonyl)benzonitrile]",0.01 to 1,152 to 154 °C,–
"CN1C(=O)C(c2cccc(-c3ccccc3)c2)(C2CCN(C(=O)c3cccc(C#N)c3)CC2)N=C1N (stereo not drawn) [Example 17, 3-({4-[2-amino-4-(1,1′-biphenyl-3-yl)-1-methyl-5-oxo-4,5-dihydro-1H -imidazol-4-yl]piperidin-1-yl}carbonyl)benzonitrile]",1.01 to 3,141 to 143 °C,–
"CN1C(=O)C(c2cccc(-c3ccccc3)c2)(C2CCN(C(=O)c3ccccc3C#N)CC2)N=C1N (stereo not drawn) [Example 18, 2-({4-[2-amino4-(1,1′-biphenyl-3-yl)-1-methyl-5-oxo-4,5-dihydro-1H -imidazol-4-yl]piperidin-1-yl}carbonyl)benzonitrile]",> 3,144 to 146 °C,–
"CCCc1ccc(C(=O)N2CCC(C3(c4cccc(-c5ccccc5)c4)N=C(N)N(C)C3=O)CC2)cc1 (stereo not drawn) [Example 21, 2-amino-5-(1,1′-biphenyl-3-yl)-3-methyl-5-[1-(4-propylbenzoyl)piperidin4-yl]-3,5-dihydro4H-imidazol-4-one]",0.01 to 1,133 to 135 °C,–
"CCCOc1ccc(C(=O)N2CCC(C3(c4cccc(-c5ccccc5)c4)N=C(N)N(C)C3=O)CC2)cc1 (stereo not drawn) [Example 22, 2-amino-5-(1,1′-biphenyl-3-yl)-3-methyl-5-[1-(4-propoxybenzoyl)piperidin4-yl]-3,5-dihydro4H-imidazol-4-one]",0.01 to 1,131 to 133 °C,–
"CN1C(=O)C(c2cccc(C3CCCCC3)c2)(C2CCN(C(=O)c3ccccc3)CC2)N=C1N (stereo not drawn) [Example 24, 2-amino-5-(1-benzoylpiperidin-4-yl)-5-(3-cyclohexylphenyl)-3-methyl-3,5-dihydr-4H -imidazol-4-one]",0.01 to 1,189 to 190 °C,–
"CN1C(=O)C(c2ccccc2)(C2CCNCC2)N=C1N (stereo not drawn) [Example 27, 2-Amino-3-methyl-5-phenyl-5-piperidin-4-yl-3,5-dihydro-4H -imidazol-4-one]",–,269 to 271 °C,> 3
"COCC(=O)Nc1cccc(C2(C3CCNCC3)N=C(N)N(C)C2=O)c1 (stereo not drawn) [Example 32, N-[3-(2-Amino-1-methyl-5-oxo4-piperldin-4-yl-4,5-dihydro-1H -imidazol-4-yl)phenYl]-2-methoxyacetamide]",> 3,170 to 174 °C,–
COCC(=O)Nc1cccc(C2(C3CCN(C(=O)c4ccc(OCc5ccccc5)cc4)CC3)N=C(N)N(C)C2=O)c1 (stereo not drawn) [Example 33],0.01 to 1,149 to 152 °C,–
"COCC(=O)Nc1cccc(C2(C3CCN(C(=O)c4ccc(O)cc4)CC3)N=C(N)N(C)C2=O)c1 (stereo not drawn) [Example 34, N-(3-{2-Amino-4-[1-(4-hydroxybenzoyl)piperidin4-yl]-1-methyl-5-oxo-4,5-dihydro-1H-imidazol-4-yl}phenyl)-2-methoxyacetamide]",0.01 to 1,184 to 187 °C,–
"COCC(=O)Nc1cccc(C2(C3CCN(C(=O)c4ccc(C(=O)OC)cc4)CC3)N=C(N)N(C)C2=O)c1 (stereo not drawn) [Example 35, Methyl 4-{[4-(2-amino-4-{3-[(methoxyacetyl)amino]phenyl}-1-methyl-5-oxo-4,5-dihydro-1H-imidazol-4-yl)piperidin-1-yl]carbonyl}benzoate]",0.01 to 1,161 to 163 °C,–
"COCC(=O)Nc1cccc(C2(C3CCN(C(=O)c4ccc(C(=O)[O-])cc4)CC3)N=C(N)N(C)C2=O)c1.[Na+] (stereo not drawn) [Example 36, Sodium 4-{[4-(2-Amino4-{3-[(methoxyacetyl)amino]phenyl}-1-methyl-5-oxo-4,5-dihydro-1H-imidazol-4-yl)piperidin-1-yl]carbonyl}benzoate]",0.01 to 1,> 250 °C,–
COCC(=O)Nc1cccc(C2(C3CCN(C(=O)C4CC4)CC3)N=C(N)N(C)C2=O)c1 (stereo not drawn) [Example 37],0.01 to 1,> 130 °C (dec.),–
COCC(=O)Nc1cccc(C2(C3CCN(C(=O)CC4CCCCC4)CC3)N=C(N)N(C)C2=O)c1 (stereo not drawn) [Example 38],0.01 to 1,131 to 133 °C,–
COCC(=O)Nc1cccc(C2(C3CCN(C(=O)C4CCCC4)CC3)N=C(N)N(C)C2=O)c1 (stereo not drawn) [Example 40],0.01 to 1,134 to 136 °C,–
COCC(=O)Nc1cccc(C2(C3CCN(C(=O)C(C)C)CC3)N=C(N)N(C)C2=O)c1 (stereo not drawn) [Example 42],0.01 to 1,145 to 148 °C,–
CCC(CC)C(=O)N1CCC(C2(c3cccc(NC(=O)COC)c3)N=C(N)N(C)C2=O)CC1 (stereo not drawn) [Example 43],1.01 to 3,102 to 105 °C,–
COCC(=O)Nc1cccc(C2(C3CCN(C(=O)C4CCC(=O)O4)CC3)N=C(N)N(C)C2=O)c1 (stereo not drawn) [Example 44],0.01 to 1,118 to 120 °C,–
COCC(=O)Nc1cccc(C2(C3CCN(C(=O)c4ccccc4Cl)CC3)N=C(N)N(C)C2=O)c1 (stereo not drawn) [Example 45],0.01 to 1,130 to 133 °C,–
COCC(=O)Nc1cccc(C2(C3CCN(C(=O)c4cc5ccccc5o4)CC3)N=C(N)N(C)C2=O)c1 (stereo not drawn) [Example 46],0.01 to 1,139 to 142 °C,–
C#CCCC(=O)N1CCC(C2(c3cccc(NC(=O)COC)c3)N=C(N)N(C)C2=O)CC1 (stereo not drawn) [Example 47],> 3,135 to 138 °C,–
COCC(=O)Nc1cccc(C2(C3CCN(C(=O)CCC(C)C)CC3)N=C(N)N(C)C2=O)c1 (stereo not drawn) [Example 49],0.01 to 1,105 to 107 °C,–
COCC(=O)Nc1cccc(C2(C3CCN(C(=O)c4cccc(F)c4)CC3)N=C(N)N(C)C2=O)c1 (stereo not drawn) [Example 50],0.01 to 1,150 to 153 °C,–
COCC(=O)Nc1cccc(C2(C3CCN(C(=O)c4ccc5c(c4)OCO5)CC3)N=C(N)N(C)C2=O)c1 (stereo not drawn) [Example 51],0.01 to 1,> 160 °C (dec.),–
COCC(=O)Nc1cccc(C2(C3CCN(C(=O)c4ccc(C#N)cc4)CC3)N=C(N)N(C)C2=O)c1 (stereo not drawn) [Example 52],0.01 to 1,160 to 164 °C,–
COCC(=O)Nc1cccc(C2(C3CCN(C(=O)c4ccoc4)CC3)N=C(N)N(C)C2=O)c1 (stereo not drawn) [Example 53],0.01 to 1,140 to 142 °C,–
COCC(=O)Nc1cccc(C2(C3CCN(C(=O)c4ccc5ccccc5c4)CC3)N=C(N)N(C)C2=O)c1 (stereo not drawn) [Example 54],0.01 to 1,168 to 170 °C,–
COCC(=O)Nc1cccc(C2(C3CCN(C(=O)c4cccs4)CC3)N=C(N)N(C)C2=O)c1 (stereo not drawn) [Example 55],0.01 to 1,148 to 152 °C,–
COCC(=O)Nc1cccc(C2(C3CCN(C(=O)COC)CC3)N=C(N)N(C)C2=O)c1 (stereo not drawn) [Example 56],1.01 to 3,79 to 80 °C,–
COCC(=O)Nc1cccc(C2(C3CCN(C(=O)C(F)(F)F)CC3)N=C(N)N(C)C2=O)c1 (stereo not drawn) [Example 58],0.01 to 1,120 to 122 °C,–
